Assay results as given in ChEMBL document CHEMBL1799993, “Design driven HtL: The discovery and synthesis of new high efficacy β₂-agonists” (Bioorg Med Chem Lett, 2011).
The source made the active and inactive calls. No cut-off for these calls is given here.

Legend:
[1] = biological target: Beta-2 adrenergic receptor (Homo sapiens, UniProt P07550); assay: Agonist activity at human adrenergic beta2 receptor expressed in H292 cells assessed as intracellular cAMP accumulation after 1 hr; type: functional, cell-based
Chain of Beta-2 adrenergic receptor (P07550 whole entry): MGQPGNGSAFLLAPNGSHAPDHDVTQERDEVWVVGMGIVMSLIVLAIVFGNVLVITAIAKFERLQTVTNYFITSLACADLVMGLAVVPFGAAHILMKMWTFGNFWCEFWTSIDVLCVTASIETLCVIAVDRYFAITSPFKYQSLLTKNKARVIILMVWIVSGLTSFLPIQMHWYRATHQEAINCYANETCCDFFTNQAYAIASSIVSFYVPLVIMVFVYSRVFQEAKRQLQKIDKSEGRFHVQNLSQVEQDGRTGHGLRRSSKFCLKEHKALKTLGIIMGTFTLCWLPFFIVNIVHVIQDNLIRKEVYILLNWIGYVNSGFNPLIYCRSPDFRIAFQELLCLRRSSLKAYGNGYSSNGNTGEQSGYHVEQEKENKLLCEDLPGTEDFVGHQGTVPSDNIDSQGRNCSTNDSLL

Cavia porcellus [2] = assay: Bronchodilatory activity against histamine-induced bronchoconstriction in guinea pig at ED80 intratracheally administered 2 hrs before challenge measured up to 12 hrs; type: functional; settings: inhaled or nasal
Cavia porcellus [3] = assay: Bronchodilatory activity against histamine-induced bronchoconstriction in guinea pig at ED80 intratracheally administered 2 hrs before challenge measured after 2 hrs; type: functional, organism-based
Cavia porcellus [4] = assay: Bronchodilatory activity against histamine-induced bronchoconstriction in guinea pig at ED80 intratracheally administered 2 hrs before challenge measured up to 2 hrs; type: functional, organism-based
Cavia porcellus [5] = species: Cavia porcellus; assay: Bronchodilatory activity against histamine-induced bronchospasm in guinea pig; type: functional, organism-based

EC50 [1] [nM]	Compound	also measured
> 1000	CN(CCc1ccc(O)c2[nH]c(=O)sc12)CCN(C)C(=O)CCOCCc1ccccc1	
0.501	CN(CCNCCc1ccc(O)c2[nH]c(=O)sc12)C(=O)CCOCCc1ccccc1	
	OCc1cc(C(O)CNCCCCCCOCCCCc2ccccc2)ccc1O (configuration not stated) [SALMETEROL]	ED80 (Cavia porcellus [2]): 0.7 µg/kg
7.94	CC(C)(CNCCc1ccc(O)c2[nH]c(=O)sc12)NC(=O)CCOCCc1ccccc1	
126	CCCCN(CCN(C)CCc1ccc(O)c2[nH]c(=O)sc12)C(=O)CCOCCc1ccccc1	
1	CCN(CCNCCc1ccc(O)c2[nH]c(=O)sc12)C(=O)CCOCCc1ccccc1	
0.794	CCCCN(CCNC[C@H](O)c1ccc(O)c2[nH]c(=O)sc12)C(=O)CCOCCc1ccccc1	
	COc1ccc(CC(C)NCC(O)c2ccc(O)c(NC=O)c2)cc1 (configuration not stated) [FORMOTEROL]	ED80 (Cavia porcellus [2]): 1.4 µg/kg
1.58	CCCCN(CCNCCc1ccc(O)c2[nH]c(=O)sc12)C(=O)CCOCCc1ccccc1	Activity (Cavia porcellus [3]): inactive; ED80 (Cavia porcellus [2]): 2.6 µg/kg; Activity (Cavia porcellus [4]): Active; Activity (Cavia porcellus [5]): Dose-dependent effect
7.94	CCCN(CCNCCc1ccc(O)c2[nH]c(=O)sc12)C(=O)CCOCCc1ccccc1	
7.94	CC(C)N(CCNCCc1ccc(O)c2[nH]c(=O)sc12)C(=O)CCOCCc1ccccc1	
1.58	O=C(CCOCCc1ccccc1)NCCNCCc1ccc(O)c2nc(O)sc12	
> 1000	COc1ccc(CCNCCN(C)C(=O)CCOCCc2ccccc2)c2sc(=O)[nH]c12	
